Reference: US9045390B2, “Haloalkylmethyleneoxyphenyl-substituted ketoenols” (Bayer CropScience AG, priority 2009, dated 2015)

Key:
[1] = test system: cotton aphid (Aphis gossypii); experiment: Aphis gossypii test (with ammonium salts and penetration enhancers); format: in vivo; settings: 4 ppm
Description: Aphis gossypsi Test [table] To prepare an appropriate active ingredient preparation, 1 part by weight of active ingredient is mixed with the stated amounts of solvent and emulsifier, and the concentrate is diluted to the desired concentration with emulsifier-containing water. […] Cotton plants (Gossypium hirsutum) heavily infested by the cotton aphid (Aphis gossypii) are treated by spraying to runoff point with the active ingredient preparation of the desired concentration.

cereals [2] = experiment: Container trials with cereals in a greenhouse, mefenpyr 1 day before herbicide application; format: in vivo; settings: 28 days after application
Description: (§1) Seeds of monocotyledonous and dicotyledonous weed and crop plants are placed in sandy loam in wood fibre pots, covered with soil and cultivated in a greenhouse under good growth conditions. Two to three weeks after sowing, the test plants are treated at the one-leaf stage. The test compounds, formulated as wettable powders (WP), are sprayed onto the green parts of the plants in different dosages with a water application rate of 600 l/ha (converted), with 0.2% added wetting agent. After the test plants have been kept in the greenhouse under optimal growth conditions for about three weeks, the effect of the preparations is assessed visually by comparison to untreated controls (herbicidal effect in per cent: 100% effect=the plants have died, 0% effect=like control plants).
(§2) If there is to be an additional test as to whether safeners can improve the plant compatibility of test substances in the case of crop plants, the following options are used for applying the safeners: • Seeds of the crop plants are, before sowing, dressed with safener substance (the amount of safener stated in per cent, based on the weight of the seed) • Before the application of the test substances, the crop plants are sprayed with the safener at a certain application rate per hectare (usually one day before the application of the test substances) • The safener is applied together with the test substance as a tankmix (the amount of safener is stated in g/ha or as a ratio, based on the herbicide).
Container Trials with Cereals in a Greenhouse
Mefenpyr 1 Day Before Herbicide Application

cereals [3] = experiment: as above; format: in vivo; settings: 10 days after application, 12.5 g a.i./ha
Maize (Aventura) = experiment: Container tests with maize-soya-cotton in a greenhouse, cyprosulfamide 1 day before herbicide application; format: in vivo
Description: as §1, §2
(§3) Container Tests with Maize-Soya-Cotton in a Greenhouse
(§4) Cyprosulfamide 1 Day Before Herbicide Application

Maize (Arsenal) = experiment: as above; format: in vivo
Description: as §1, §2, §3, §4

Maize (Cecilia) = format: in vivo; settings: 100 g a.i./ha
Description: as §1, §2, §3, §4

[4] = test system: green peach aphid (Myzus persicae); experiment: Myzus test (MYZUPE spray treatment); format: in vivo; settings: application rate 20 g/ha, Chinese cabbage leaf discs
Description: Myzus Test (MYZUPE Spray Treatment)
To prepare an appropriate active ingredient preparation, 1 part by weight of active ingredient is mixed with the stated amounts of solvent and emulsifier, and the concentrate is diluted with emulsifier-containing water to the desired concentration.
Discs of Chinese cabbage (Brassica pekinensis) infected by all stages of the green peach aphid (Myzus persicae) are sprayed with an active ingredient preparation of the desired concentration.
After the desired time, the effect in % is determined. 100% means that all of the aphids have been killed; 0% means that none of the aphids have been killed.

[5] = log P determination by HPLC/LC-MS on reversed-phase column (C 18); format: physicochemical; settings: reversed-phase column (C 18), pH 2.7, LC-MS acidic range, pH 2.7, 0.1% aqueous formic acid and acetonitrile; read-out: log P (HCOOH)
Description: The log P values reported in the above tables and preparation examples are determined according to EEC Directive 79/831 Annex V.A8 by HPLC (High Performance Liquid Chromatography) on a reversed-phase column (C 18). Temperature: 43° C.
The determination is effected in the acidic range at pH 2.3 with 0.1% aqueous phosphoric acid and acetonitrile as eluent; linear gradient from 10% acetonitrile to 95% acetonitrile.
The determination by LC-MS in the acidic range is effected at pH 2.7 with 0.1% aqueous formic acid and acetonitrile (contains 0.1% formic acid) as the eluent; linear gradient from 10% acetonitrile to 95% acetonitrile.
The determination by LC-MS in the neutral range is effected at pH 7.8 with 0.001 molar aqueous ammonium hydrogen carbonate solution and acetonitrile as the eluent; linear gradient from 10% acetonitrile to 95% acetonitrile.
The calibration is effected with unbranched alkane-2-ones (with 3 to 16 carbon atoms), the log P values of which are known (determination of log P values on the basis of the retention times by linear interpolation between two successive alkanones).

Cc1ccc(OCC(F)(F)F)c(C)c1C1=C(O)C2(CCOCC2)NC1=O [Example I-1-a-31]
Kill rate/% after 6 days +AS (1000 ppm) ([1]; +AS (1000 ppm)): 10% | Kill rate/% after 6 days +RME (1000 ppm) ([1]; +RME (1000 ppm)): 5% | Kill rate/% after 6 days +RME +AS (1000 ppm each) ([1]; +RME +AS (1000 ppm each)): 35% | Kill rate/% after 6 days ([1]; active ingredient alone, cotton plants): 0%

CCc1cc(OCC(F)(F)F)cc(C)c1C1=C(O)C2(CCC3(CC2)OCCO3)NC1=O [Example I-1-a-6]
Summer wheat observed (%) (cereals [2]; 12.5 g a.i./ha): 70% | Summer wheat observed (%) (cereals [2]; 25 g a.i./ha): 85%

CCc1cc(OCC(F)(F)F)cc(C)c1C1=C(O)C2(CCC3(CC2)OCC(C)O3)NC1=O (stereo not shown) [Example I-1-a-7]
Summer wheat observed (%) (cereals [2]; 12.5 g a.i./ha): 50% | Summer wheat observed (%) (cereals [2]; 25 g a.i./ha): 50% | Summer wheat observed (%) (cereals [2]; 50 g a.i./ha): 70% | Summer wheat observed (%) (cereals [2]; 100 g a.i./ha): 70%

CCCCOC1CCCC2(C1)NC(=O)C(c1c(C)cc(OCC(F)(F)F)cc1CC)=C2O (stereo not shown) [Example I-1-a-15]
Summer barley observed (%) (cereals [2]; 12.5 g a.i./ha): 70% | Summer barley observed (%) (cereals [2]; 25 g a.i./ha): 85% | Summer barley observed (%) (cereals [2]; 50 g a.i./ha): 97% | Summer wheat observed (%) (cereals [2]; 12.5 g a.i./ha): 10% | Summer wheat observed (%) (cereals [2]; 25 g a.i./ha): 30% | Summer wheat observed (%) (cereals [2]; 50 g a.i./ha): 40% | Summer wheat observed (%) (cereals [2]; 100 g a.i./ha): 60%

CCc1cc(OCC(F)(F)F)cc(C)c1C1=C(O)C2(CCC(C)CC2)NC1=O (stereo not shown) [Example I-1-a-8]
Summer wheat observed (%) (cereals [2]; 12.5 g a.i./ha): 98% | Summer wheat observed (%) (cereals [3]): 65% | 28 days after application Maize (Aventura) observed (%) (Maize (Aventura); 12.5 g a.i./ha): 35% | 28 days after application Maize (Aventura) observed (%) (Maize (Aventura); 25 g a.i./ha): 60% | 28 days after application Maize (Aventura) observed (%) (Maize (Aventura); 50 g a.i./ha): 70%

CCOC1CCCC2(CC1)NC(=O)C(c1c(C)cc(OCC(F)(F)F)cc1CC)=C2O (stereo not shown) [Example I-1-a-5]
Summer barley observed (%) (cereals [2]; 12.5 g a.i./ha): 65% | Summer barley observed (%) (cereals [2]; 25 g a.i./ha): 95% | Summer wheat observed (%) (cereals [2]; 12.5 g a.i./ha): 65%

COCC1CCC2(CC1)NC(=O)C(c1c(C)cc(OCC(F)(F)F)cc1C)=C2O (stereo not shown) [Example I-1-a-17]
Summer barley observed (%) (cereals [2]; 50 g a.i./ha): 40% | Summer barley observed (%) (cereals [2]; 100 g a.i./ha): 80% | Summer barley observed (%) (cereals [2]; 200 g a.i./ha): 95%

CCOC(=O)OC1=C(c2c(C)cc(OCC(F)(F)F)cc2C)C(=O)NC12CCCC(OCC)C2 (stereo not shown) [Example I-1-c-2]
28 days after application Maize (Arsenal) observed (%) (Maize (Arsenal); 25 g a.i./ha): 20% | 28 days after application Maize (Arsenal) observed (%) (Maize (Arsenal); 50 g a.i./ha): 20% | 28 days after application Maize (Arsenal) observed (%) (Maize (Arsenal); 100 g a.i./ha): 25% | 28 days after application Maize (Cecilia) observed (%) (Maize (Cecilia)): 75%

Cc1cc(OCC(F)(F)F)cc(C)c1C1=C(O)C2CCCCN2C1=O (stereo not shown) [Example I-1-a-20]
effect in % (aphids killed) [4]: ≥ 80%

Cc1ccc(OCC(F)(F)F)cc1C1=C(OC(=O)C(C)(C)C)C2(CCCC2)OC1=O [Example I-2-b-1]
chromatographic logP [5]: 4.69
